What was measured:
CD73 [1] = target: T1, CD73 (Homo sapiens (Human), UniProt P21589); type: biochemical; conditions: 1 mM NaH2PO4 in enzyme buffer, CD73 0.3 nM, AMP 15 uM
CD73 [2] = target: T1, CD73; experiment: MDA-MB-231 Cell Based CD73 Activity Assay (DMEM); conditions: MDA-MB-231-GFP cells, DMEM medium with 10% human plasma, 200 uM AMP

T1 sequence (P21589 27-574): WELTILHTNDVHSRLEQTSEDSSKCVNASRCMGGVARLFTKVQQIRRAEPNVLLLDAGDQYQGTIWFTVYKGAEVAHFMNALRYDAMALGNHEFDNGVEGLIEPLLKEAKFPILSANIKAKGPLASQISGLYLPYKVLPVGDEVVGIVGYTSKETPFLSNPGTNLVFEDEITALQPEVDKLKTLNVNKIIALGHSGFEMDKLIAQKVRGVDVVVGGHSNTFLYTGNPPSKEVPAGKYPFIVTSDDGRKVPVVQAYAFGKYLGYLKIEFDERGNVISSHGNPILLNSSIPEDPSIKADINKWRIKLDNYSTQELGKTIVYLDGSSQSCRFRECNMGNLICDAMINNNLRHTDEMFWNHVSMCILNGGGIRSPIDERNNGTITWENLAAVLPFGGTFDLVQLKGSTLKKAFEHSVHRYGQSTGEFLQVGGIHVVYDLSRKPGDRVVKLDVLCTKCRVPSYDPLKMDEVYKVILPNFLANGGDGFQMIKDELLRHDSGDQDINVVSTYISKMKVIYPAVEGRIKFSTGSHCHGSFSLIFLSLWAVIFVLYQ

SMILES | IC50 (CD73 [1]) | EC50 (CD73 [2])
O=C1N(CC(F)(F)F)c2cc([C@H]3C[C@@H]3c3cc(-c4c[nH]c(=O)[nH]c4=O)nn4ccnc34)ccc2C12CCC2 [Example 384, 5-(8-((1S,2S)-2-(2′-oxo-1′-(2,2,2-trifluoroethyl)spiro[cyclobutane-1,3′-indolin]-6′-yl)cyclopropyl)imidazo[1,2-b]pyridazin-6-yl)pyrimidine-2,4(1H,3H)-dione] | 1.27 nM | 0.24 nM
O=c1[nH]cc(-c2cc([C@H]3C[C@@H]3c3ccc4cnn(CC(F)(F)F)c4c3)c3ncc(F)n3n2)c(=O)[nH]1 [Example 319, 5-(3-fluoro-8-((1S,2S)-2-(1-(2,2,2-trifluoroethyl)-1H-indazol-6-yl)cyclopropyl)imidazo[1,2-b]pyridazin-6-yl)pyrimidine-2,4(1H,3H)-dione] | 0.34 nM | 0.07 nM
COC1CN(c2cc(-c3c[nH]c(=O)[nH]c3=O)nn3c(F)cnc23)CC1(F)F (stereo not shown) [Example 474, 5-(8-(3,3-difluoro-4-methoxypyrrolidin-1-yl)-3-fluoroimidazo[1,2-b]pyridazin-6-yl)pyrimidine-2,4(1H,3H)-dione] | 7.47 nM | 26.7 nM
O=c1[nH]cc(-c2cc(N3CC(F)(C(F)(F)F)C3)c3ncc(Cl)n3n2)c(=O)[nH]1 [Example 455, 5-(3-chloro-8-(3-fluoro-3-(trifluoromethyl)azetidin-1-yl)imidazo[1,2-b]pyridazin-6-yl)pyrimidine-2,4(1H,3H)-dione] | 14.9 nM | 46 nM
CC(C)(C)C#Cc1cc(-c2c[nH]c(=O)[nH]c2=O)nn2ccnc12 [Example 686, 5-(8-(3,3-dimethylbut-1-yn-1-yl)imidazo[1,2-b]pyridazin-6-yl)pyrimidine-2,4(1H,3H)-dione] | 45 nM | 285 nM
O=c1[nH]cc(-c2cc(N3CCC4(CC4)C3)c3nccn3n2)c(=O)[nH]1 [Example 190, 5-[8-(5-azaspiro[2.4]heptan-5-yl)imidazo[1,2-b]pyridazin-6-yl]-1H-pyrimidine-2,4-dione] | 3.05 nM | 12.8 nM
CC(C)(C)OC(=O)N1CC2(C1)CN(c1cc(-c3c[nH]c(=O)[nH]c3=O)nn3ccnc13)CC2(F)F [Example 488, tert-butyl 6-(6-(2,4-dioxo-1,2,3,4-tetrahydropyrimidin-5-yl)imidazo[1,2-b]pyridazin-8-yl)-8,8-difluoro-2,6-diazaspiro[3.4]octane-2-carboxylate] | 16.9 nM | 13 nM
CC1(C)CN(c2cc(-c3c[nH]c(=O)[nH]c3=O)nc3c(F)cnn23)CC1(F)F [Example 219, 5-(7-(3,3-difluoro-4,4-dimethylpyrrolidin-1-yl)-3-fluoropyrazolo[1,5-a]pyrimidin-5-yl)pyrimidine-2,4(1H,3H)-dione] | 8.26 nM | 62.6 nM
O=c1[nH]cc(-c2cc([C@H]3C[C@@H]3c3cnc4c(F)nn(CC(F)(F)F)c4c3)c3ncc(Cl)n3n2)c(=O)[nH]1 [Example 719, 5-[3-chloro-8-[(1S,2S)-2-[3-fluoro-1-(2,2,2-trifluoroethyl)pyrazolo[4,3-b]pyridin-6-yl]cyclopropyl]imidazo[1,2-b]pyridazin-6-yl]-1H-pyrimidine-2,4-dione] | 0.51 nM | 0.46 nM
O=c1[nH]cc(-c2cc([C@H]3C[C@@H]3c3ccc4cnn(CC(F)(F)F)c4n3)c3ncc(F)n3n2)c(=O)[nH]1 (racemic) [Example 602, 5-(3-fluoro-8-((1S,2S)-2-(1-(2,2,2-trifluoroethyl)-1H-pyrazolo[3,4-b]pyridin-6-yl)cyclopropyl)imidazo[1,2-b]pyridazin-6-yl)pyrimidine-2,4(1H,3H)-dione] | 0.93 nM | 0.53 nM
CC1(CC(F)F)CN(c2cc(-c3c[nH]c(=O)[nH]c3=O)nn3ccnc23)C1 [Example 444, 5-(8-(3-(2,2-difluoroethyl)-3-methylazetidin-1-yl)imidazo[1,2-b]pyridazin-6-yl)pyrimidine-2,4(1H,3H)-dione] | 71 nM | 356 nM
O=c1[nH]cc(-c2cc([C@H]3C[C@@H]3c3ccc4nc(C(F)(F)F)sc4c3)c3nccn3n2)c(=O)[nH]1 [Example 562, 5-(8-((1S,2S)-2-(2-(trifluoromethyl)benzo[d]thiazol-6-yl)cyclopropyl)imidazo[1,2-b]pyridazin-6-yl)pyrimidine-2,4(1H,3H)-dione] | 0.97 nM | 2.64 nM
CC(C)NC(=O)OCC(F)(F)COc1cc(-c2c[nH]c(=O)[nH]c2=O)nn2ncnc12 [Example 438, 3-((6-(2,4-dioxo-1,2,3,4-tetrahydropyrimidin-5-yl)-[1,2,4]triazolo[1,5-b]pyridazin-8-yl)oxy)-2,2-difluoropropyl isopropylcarbamate] | 0.14 nM | 0.1 nM
O=c1[nH]cc(-c2cc([C@H]3C[C@@H]3c3ccc(OCC(F)F)cc3)c3nccn3n2)c(=O)[nH]1 (racemic) [Example 574, 5-(8-((1S,2S)-2-(4-(2,2-difluoroethoxy)phenyl)cyclopropyl)imidazo[1,2-b]pyridazin-6-yl)pyrimidine-2,4(1H,3H)-dione] | 0.73 nM | 17.3 nM
O=c1[nH]cc(-c2cc(N3CCC(F)(F)C3)c3ncc(F)n3n2)c(=O)[nH]1 [Example 176, 5-(8-(3,3-difluoropyrrolidin-1-yl)-3-fluoroimidazo[1,2-b]pyridazin-6-yl)pyrimidine-2,4(1H,3H)-dione] | 11 nM | 59.5 nM
O=c1[nH]cc(-c2cc(NCCc3ccccc3Cl)c3nccn3n2)c(=O)[nH]1 [Example 491, 5-(8-((2-chlorophenethyl)amino)imidazo[1,2-b]pyridazin-6-yl)pyrimidine-2,4(1H,3H)-dione] | > 250 nM | 1680 nM
CC1CN(c2cc(-c3c[nH]c(=O)[nH]c3=O)nc3c(F)cnn23)CC1(F)F (stereo not shown) [Example 222, 5-(7-(3,3-difluoro-4-methylpyrrolidin-1-yl)-3-fluoropyrazolo[1,5-a]pyrimidin-5-yl)pyrimidine-2,4(1H,3H)-dione] | 17.4 nM | 133 nM
CC(C)CNc1cc(-c2c[nH]c(=O)[nH]c2=O)nn2ccnc12 [Example 667, 5-(8-(isobutylamino)imidazo[1,2-b]pyridazin-6-yl)pyrimidine-2,4(1H,3H)-dione] | 100 nM | 414 nM
CC1(C)CN(c2cc(-c3c[nH]c(=O)[nH]c3=O)nc3nccn23)CC1(F)F [Example 421, 5-(5-(3,3-difluoro-4,4-dimethylpyrrolidin-1-yl)imidazo[1,2-a]pyrimidin-7-yl)pyrimidine-2,4(1H,3H)-dione] | 31 nM | 65.1 nM
O=c1[nH]cc(-c2cc([C@H]3C[C@@H]3c3ccc4cnn(CC(F)(F)F)c4c3)c3ncc(Cl)n3n2)c(=O)[nH]1 [Example 470, 5-(3-chloro-8-((1S,2S)-2-(1-(2,2,2-trifluoroethyl)-1H-indazol-6-yl)cyclopropyl)imidazo[1,2-b]pyridazin-6-yl)pyrimidine-2,4(1H,3H)-dione] | 0.23 nM | 0.13 nM
O=c1[nH]cc(-c2cc(N3CC4(CC(C(F)F)C4)C3)c3nccn3n2)c(=O)[nH]1 [Example 448, 5-(8-(6-(difluoromethyl)-2-azaspiro[3.3]heptan-2-yl)imidazo[1,2-b]pyridazin-6-yl)pyrimidine-2,4(1H,3H)-dione] | 194 nM | 1360 nM
O=c1[nH]cc(-c2cc([C@H]3C[C@@H]3c3ccccc3Cl)c3nccn3n2)c(=O)[nH]1 (racemic) [Example 555, 5-(8-((1S,2S)-2-(2-chlorophenyl)cyclopropyl)imidazo[1,2-b]pyridazin-6-yl)pyrimidine-2,4(1H,3H)-dione] | 13.3 nM | 267 nM
C[C@@H]1CN(c2cc(-c3c[nH]c(=O)[nH]c3=O)nn3ccnc23)CC1(F)F [Example 517, (R)-5-(8-(3,3-difluoro-4-methylpyrrolidin-1-yl)imidazo[1,2-b]pyridazin-6-yl)pyrimidine-2,4(1H,3H)-dione] | 5.23 nM | 21.4 nM
O=c1[nH]cc(-c2cc(N3C[C@@H](F)[C@@H](F)C3)c3ncc(F)n3n2)c(=O)[nH]1 [Example 177, 5-(8-((3R,4S)-3,4-difluoropyrrolidin-1-yl)-3-fluoroimidazo[1,2-b]pyridazin-6-yl)pyrimidine-2,4(1H,3H)-dione] | 7.27 nM | 33.3 nM
CC(C)NC(=O)CC1CCN(c2cc(-c3c[nH]c(=O)[nH]c3=O)nn3ccnc23)C1 (stereo not shown) [Example 654, 2-(1-(6-(2,4-dioxo-1,2,3,4-tetrahydropyrimidin-5-yl)imidazo[1,2-b]pyridazin-8-yl)pyrrolidin-3-yl)-N-isopropylacetamide] | 54.5 nM | 133 nM
O=c1[nH]cc(-c2cc([C@H]3C[C@@H]3c3ccc(OC(F)F)cc3)c3nccn3n2)c(=O)[nH]1 [Example 561, 5-(8-((1S,2S)-2-(4-(difluoromethoxy)phenyl)cyclopropyl)imidazo[1,2-b]pyridazin-6-yl)pyrimidine-2,4(1H,3H)-dione] | 0.71 nM | 3.06 nM
O=c1[nH]cc(-c2cc([C@H]3C[C@@H]3c3ccc4c(Cl)nn(CC(F)(F)F)c4c3)c3nccn3n2)c(=O)[nH]1 [Example 459, 5-(8-((1S,2S)-2-(3-chloro-1-(2,2,2-trifluoroethyl)-1H-indazol-6-yl)cyclopropyl)imidazo[1,2-b]pyridazin-6-yl)pyrimidine-2,4(1H,3H)-dione] | 0.75 nM | 0.38 nM
N#Cc1ccc([C@H]2C[C@@H]2c2cc(-c3c[nH]c(=O)[nH]c3=O)nn3c(F)cnc23)c(F)c1 [Example 310, 4-((1S,2S)-2-(6-(2,4-dioxo-1,2,3,4-tetrahydropyrimidin-5-yl)-3-fluoroimidazo[1,2-b]pyridazin-8-yl)cyclopropyl)-3-fluorobenzonitrile] | 0.63 nM | 3.4 nM
N#Cc1cc(F)c([C@H]2C[C@@H]2c2cc(-c3c[nH]c(=O)[nH]c3=O)nn3c(F)cnc23)cc1F [Example 573, 4-((1S,2S)-2-(6-(2,4-dioxo-1,2,3,4-tetrahydropyrimidin-5-yl)-3-fluoroimidazo[1,2-b]pyridazin-8-yl)cyclopropyl)-2,5-difluorobenzonitrile] | 1.21 nM | 7.46 nM

Source: US20240043427A1 (Gilead Sciences, Inc., priority 2020, published 2024)
